Experiments:
[1] = system: rhythmic bladder contractions (micturition reflex); experiment: Inhibitory effect on rhythmic bladder contractions (micturition reflex); assay type: in vivo, Female Std-Wistar rats; conditions: i.d., rat; for ED50: 2 h, two hours, read-out: ED50, inhibitory effect on contractile frequency; for Potency on frequency of rhythmic bladder contractions relative to inaperisone hydrochloride (Compound A): compared with Compound A
Experimental: Inhibitory effect on rhythmic bladder contractions (micturition reflex)
The experiment was carried out according to the method of Maggi, C. […] It is generally accepted that the rhythmic bladder contractions evoked by instillation of saline solution into the bladder are mediated via the micturition reflex pathway like that of natural urination.
Female Std-Wistar rats weighing 160-190 g were used in groups of 3-4 animals. Under urethane anesthesia (1 g/kg, s.c.), both ureters were tied and cut at the side of kidney after a mid line incision of the abdomen. A cannula, connected to a syringe and a pressure transducer, was inserted into the bladder via the external urethral orifice and ligated around the proximal urethra. The animal was allowed to stay for about 30 minutes after the operation. The bladder was slowly filled with warm saline solution (0.4-1 ml) by means of a syringe until rhythmic contractions were induced. The change of the intravesical pressure was recorded on a recorder via a pressure transducer. After the rhythmic contractions became constant, test compounds dissolved or suspended in 0.5% aqueous tragacanth solution were administered via the cannula inserted for intraduodenal administration. The effect of each compound on the contractile frequency was investigated every 15 minutes till two hours after the administration.
The inhibitory rate on the contractile frequency (two hours) was expressed as the mean value of the inhibitory rates at an every 15-minute interval for two hours after the administration, which was determined based on the contractile frequency for 15 minutes before the administration.

[2] = system: bladder contractions induced by stimulation of the pelvic nerve, peripheral cut end; experiment: Effect on the bladder contractions induced by stimulation of the pelvic nerve (peripheral cut end); assay type: in vivo, Male Std-Wistar rats; conditions: 5 mg/kg i.v. (jugular vein), mean±SEM; for Inhibitory rate on the contraction caused by the stimulation of the peripheral cut end, 10 min. / Inhibitory rate on the contraction caused by the stimulation of the peripheral cut end, 20 min.: * p<0.05
Source text: (§1) Effect on the bladder contractions induced by stimulation of the pelvic nerve
(§2) Male Std-Wistar rats weighing 250-350 g were used. Under urethane anesthesia (1 g/kg, i.p.), both ureters were tied and cut at the side of kidney after a mid line incision of the abdomen. When the peripheral end of the pelvic nerve was stimulated, one side of the pelvic nerve was cut. When the central cut end of the nerve was stimulated, one side of the pelvic nerve was cut like in the peripheral end stimulation after both the hypogastric nerves were cut. Then, the bladder was exposed, the cannula connected to a syringe and a pressure transducer was inserted into the bladder via a small incision at an apex of the dome, and the proximal urethra was then ligated. Fifteen minutes after the operation, warm saline solution of an amount (0.1-0.2 ml) being small enough not to cause rhythmic contraction was infused into the bladder using a syringe. The change of the intravesical pressure was recorded on a recorder via a pressure transducer. The pelvic nerve was stimulated at the peripheral cut end or the central one by a pair of platinum electrodes with pulse of 1 msec duration, 3 v strength and a frequency of 10 Hz (for peripheral) or 5 v strength and a frequency of 20 Hz (for central), for 5 seconds every 2 minutes. Test compounds dissolved in distilled water were injected at a dose of 5 mg/kg via the cannula inserted into the jugular vein.
(§3) Each value in the table is mean±standard error of mean in 3-4 animals.

[3] = system: bladder contractions induced by stimulation of the pelvic nerve, central cut end; experiment: Effect on the bladder contractions induced by stimulation of the pelvic nerve (central cut end); assay type: in vivo, Male Std-Wistar rats; conditions: for Inhibitory rate on the contraction caused by the stimulation of the central cut end, 2 min. / Inhibitory rate on the contraction caused by the stimulation of the central cut end, 4 min. / Inhibitory rate on the contraction caused by the stimulation of the central cut end, 10 min. / Inhibitory rate on the contraction caused by the stimulation of the central cut end, 20 min.: 5 mg/kg i.v. (jugular vein), mean±SEM; for Inhibitory rate on the contraction caused by the stimulation of the central cut end, 2 min.: * p<0.05; for Inhibitory rate on the contraction caused by the stimulation of the central cut end, 4 min. / Inhibitory rate on the contraction caused by the stimulation of the central cut end, 20 min.: * p<0.05, ** <0.01; for Inhibitory rate on the contraction caused by the stimulation of the central cut end, 10 min.: ** <0.01; for Effect on contractions by stimulation of central cut end compared with peripheral cut end: 5 mg/kg i.v., rat
Source text: as §1, §2, §3

exploratory behavior = experiment: Inhibitory effect on exploratory behavior; assay type: in vivo, Male Std-Wistar rats; conditions: 500 mg/kg p.o., rat; for Inhibitory rate, exploratory behavior: one hour after administration
Experimental: Inhibitory effect on exploratory behavior
Male Std-Wistar rats weighing 150-200 g were used in groups of 5 animals. One hour after oral administration of test compounds suspended in 0.5% aqueous tragacanth solution, animals were individually placed in a test cage (23×35×30 cm) on an Animex activity meter (Farad Co., Sweden). Immediately thereafter, locomotor counting was started and lasted for three minutes. The mean value of the exploratory behavior (count/3 minutes) in the test compound-treated groups were determined, and then inhibitory effect of each test compound was calculated as compared with that of the control group (0.5% aqueous tragacanth solution-treated group). The results are shown in Table 5 along with the results of Experiments 4 and 5.

[4] = system: polysynaptic spinal reflex; experiment: Inhibitory effect on polysynaptic spinal reflex; assay type: in vivo, Male Std-Wistar rats; conditions: rat; for Inhibitory effect on spinal reflex compared with Compound A: i.v.; for ED50: iv, read-out: Inhibitory effect on polysynaptic spinal reflex, ID50
Experimental: Inhibitory effect on polysynaptic spinal reflex
The experiment was performed according to the method of Itoh, et al. [Japan J. Parmacol.,23, 1125 (1982)]. Male Std-Wistar rats weighing 250-350 g were used in groups of 4-6 animals. Under anesthesia with combined i.p. injection of urethane (400 mg/kg) and α-chloralose (50 mg/kg), the rat fixed in a stereotaxic apparatus was clamped at the spine and tibial bane. A concentric needle electrode was inserted into the left gastrocnemius muscle, and the central end of the ipsilateral common peroneal nerve at the same side was supramaximally stimulated by an electrical stimulator (rectangular pulse,0.1 msec,0.1 Hz). Test compounds dissolved in distilled water were injected via a cannula inserted into the right femoral vein, and the evoked electromyogram was periodically recorded (2, 5, 10, 20 and 30 minutes after the injection). […] The results are shown in Table 5 along with the results of Experiments 3 and 5.

in vivo = conditions: in vivo, po; mouse; 7 days; read-out: Acute toxicity LD50
Source text: (§4) Male ddY mice weighing 18-25 g were used in groups of 5-15 animals. Test compounds suspended in 0.5% aqueous tragacanth solution were given orally, and the mortality was investigated for 7 days following administration.

Male ddY mice = experiment: in vivo; conditions: p.o.; mouse
Source text: as §4

[5] = system: rhythmic bladder contractions (micturition reflex); experiment: Inhibitory effect on rhythmic bladder contractions (micturition reflex); assay type: in vivo, Female Std-Wistar rats; conditions: judged from Experiments 1, 3, 4 and 5
[6] = system: neurogenic bladder, unstable bladder, and nervous pollakisuria; conditions: Nishinihon J. Urol., 54, 1472 and 1820 (1992); cited from earlier work
dopamine receptor = conditions: in vitro; cited from earlier work

Structure (SMILES): Cc1cc2c(cc1C)CCC(CCN1CCCCC1)=C2 [Ex. 43, 1-[2-(3,4-dihydro-6,7-dimethyl-2-naphthalenyl)ethyl]piperidine]
- ED50 [1]: 11.1 mg/kg
- Potency on frequency of rhythmic bladder contractions relative to inaperisone hydrochloride (Compound A) [1]: ~3 times more potent
- Inhibitory rate on the contraction caused by the stimulation of the peripheral cut end, 2 min. [2]: 2.4 ± 3.3%
- Inhibitory rate on the contraction caused by the stimulation of the peripheral cut end, 4 min. [2]: 5.8 ± 6.3%
- Inhibitory rate on the contraction caused by the stimulation of the peripheral cut end, 10 min. [2]: 6.3 ± 8.1%
- Inhibitory rate on the contraction caused by the stimulation of the peripheral cut end, 20 min. [2]: 17.2 ± 12.2%
- Inhibitory rate on the contraction caused by the stimulation of the central cut end, 2 min. [3]: 6.0 ± 10.8%
- Inhibitory rate on the contraction caused by the stimulation of the central cut end, 4 min. [3]: 22.8 ± 9.7%
- Inhibitory rate on the contraction caused by the stimulation of the central cut end, 10 min. [3]: 28.3 ± 4.0%
- Inhibitory rate on the contraction caused by the stimulation of the central cut end, 20 min. [3]: 37.3 ± 5.0%
- Effect on contractions by stimulation of central cut end compared with peripheral cut end [3]: more potent than those on the contractions induced by the stimulation of peripheral cut end
- Inhibitory rate, exploratory behavior (exploratory behavior): 20.0%
- Inhibitory effect on exploratory behavior compared with Compound A (exploratory behavior): almost equal to that of Compound A
- Inhibitory effect on spinal reflex compared with Compound A [4]: nearly equal to that of Compound A
- ED50 [4]: 3.82 mg/kg
- LD50 at 168 h (in vivo): 1040 mg/kg
- Acute toxicity compared with Compound A (Male ddY mice): about twice lower than that of Compound A
- Separation of effect on micturition reflex from side effects (central depression, inhibition of spinal reflex) and toxicity, in comparison with Compound A [5]: extremely separated from side effects

Structure (SMILES): CCc1ccc(C(=O)C(C)CN2CCCC2)cc1.Cl (centres unmarked) [Compound A, 1-(4-ethylphenyl)-2-methyl-3-(1-pyrrolidinyl)-1-propanone hydrochloride, reference compound]
- ED50 [1]: 34.8 mg/kg
- Inhibitory rate on the contraction caused by the stimulation of the peripheral cut end, 2 min. [2]: 6.2 ± 5.1%
- Inhibitory rate on the contraction caused by the stimulation of the peripheral cut end, 4 min. [2]: 14.7 ± 4.0%
- Inhibitory rate on the contraction caused by the stimulation of the peripheral cut end, 10 min. [2]: 25.1 ± 4.2%
- Inhibitory rate on the contraction caused by the stimulation of the peripheral cut end, 20 min. [2]: 31.6 ± 2.5%
- Inhibitory rate on the contraction caused by the stimulation of the central cut end, 2 min. [3]: 21.0 ± 10.7%
- Inhibitory rate on the contraction caused by the stimulation of the central cut end, 4 min. [3]: 22.5 ± 7.3%
- Inhibitory rate on the contraction caused by the stimulation of the central cut end, 10 min. [3]: 29.3 ± 7.7%
- Inhibitory rate on the contraction caused by the stimulation of the central cut end, 20 min. [3]: 40.6 ± 8.8%
- Inhibitory rate, exploratory behavior (exploratory behavior): 28.3%
- ED50 [4]: 4.22 mg/kg
- Efficacy for neurogenic bladder, unstable bladder, nervous pollakisuria [6]: effective for the symptoms such as neurogenic bladder, unstable bladder, and nervous pollakisuria

Structure (SMILES): Cc1cc2c(cc1C)CCC(CCN1CCCC1)=C2 [Ex. 2, 1-[2-(3,4-dihydro-6,7-dimethyl-2-naphthalenyl)ethyl]-pyrrolidine]
- ED50 [1]: 4.4 mg/kg
- Effect on the amplitude of contraction [1]: suppressed the amplitude of contraction
- Potency on frequency of rhythmic bladder contractions relative to inaperisone hydrochloride (Compound A) [1]: about 8 times more potent
- Inhibitory rate on the contraction caused by the stimulation of the peripheral cut end, 2 min. [2]: 0.4 ± 5.2%
- Inhibitory rate on the contraction caused by the stimulation of the peripheral cut end, 4 min. [2]: 16.3 ± 7.0%
- Inhibitory rate on the contraction caused by the stimulation of the peripheral cut end, 10 min. [2]: 13.7 ± 4.5%
- Inhibitory rate on the contraction caused by the stimulation of the peripheral cut end, 20 min. [2]: 19.0 ± 7.5%
- Inhibitory rate on the contraction caused by the stimulation of the central cut end, 2 min. [3]: 13.3 ± 5.1%
- Inhibitory rate on the contraction caused by the stimulation of the central cut end, 4 min. [3]: 17.7 ± 2.8%
- Inhibitory rate on the contraction caused by the stimulation of the central cut end, 10 min. [3]: 25.6 ± 3.7%
- Inhibitory rate on the contraction caused by the stimulation of the central cut end, 20 min. [3]: 24.9 ± 4.1%
- Effect on contractions by stimulation of central cut end compared with peripheral cut end [3]: more potent than those on the contractions induced by the stimulation of peripheral cut end
- Inhibitory rate, exploratory behavior (exploratory behavior): 0%
- Inhibitory effect on exploratory behavior compared with Compound A (exploratory behavior): less potent than that of Compound A
- Inhibitory effect on spinal reflex compared with Compound A [4]: much weaker than that of Compound A
- ED50 [4]: > 8 mg/kg
- LD50 at 168 h (in vivo): 620 mg/kg
- Acute toxicity compared with Compound A (Male ddY mice): also lower than that of Compound A
- Separation of effect on micturition reflex from side effects (central depression, inhibition of spinal reflex) and toxicity, in comparison with Compound A [5]: extremely separated from side effects

Structure (SMILES): C1=C(CCN2CCCCC2)CCc2ccccc21.Cl [1-[2-(3,4-dihydro-2-naphthalenyl)ethyl]piperidine hydrochloride]
- Affinity for dopamine receptor (dopamine receptor): quite low affinity

Structure (SMILES): Fc1cccc2c1CCC(CCN1CCCC1)=C2 [Ex. 1, 1-[2-(5-fluoro-3,4-dihydro-2-naphthalenyl)ethyl]-pyrrolidine]
- ED50 [1]: 4.3 mg/kg
- Potency on frequency of rhythmic bladder contractions relative to inaperisone hydrochloride (Compound A) [1]: about 8 times more potent
- Inhibitory rate on the contraction caused by the stimulation of the peripheral cut end, 2 min. [2]: 4.4 ± 4.4%
- Inhibitory rate on the contraction caused by the stimulation of the peripheral cut end, 4 min. [2]: 3.4 ± 4.4%
- Inhibitory rate on the contraction caused by the stimulation of the peripheral cut end, 10 min. [2]: 3.2 ± 7.5%
- Inhibitory rate on the contraction caused by the stimulation of the peripheral cut end, 20 min. [2]: 9.6 ± 8.6%
- Inhibitory rate on the contraction caused by the stimulation of the central cut end, 2 min. [3]: 26.3 ± 10.0%
- Inhibitory rate on the contraction caused by the stimulation of the central cut end, 4 min. [3]: 27.6 ± 5.6%
- Inhibitory rate on the contraction caused by the stimulation of the central cut end, 10 min. [3]: 36.8 ± 10.1%
- Inhibitory rate on the contraction caused by the stimulation of the central cut end, 20 min. [3]: 44.1 ± 5.8%
- Effect on contractions by stimulation of central cut end compared with peripheral cut end [3]: more potent than those on the contractions induced by the stimulation of peripheral cut end
- Inhibitory rate, exploratory behavior (exploratory behavior): 16.2%
- Inhibitory effect on exploratory behavior compared with Compound A (exploratory behavior): less potent than that of Compound A
- Inhibitory effect on spinal reflex compared with Compound A [4]: much weaker than that of Compound A
- ED50 [4]: > 10 mg/kg
- LD50 at 168 h (in vivo): 556 mg/kg
- Acute toxicity compared with Compound A (Male ddY mice): also lower than that of Compound A
- Separation of effect on micturition reflex from side effects (central depression, inhibition of spinal reflex) and toxicity, in comparison with Compound A [5]: extremely separated from side effects
